{
  "source": "patent US7968537B2",
  "about": "“Pyrimidine compound and pests controlling composition containing the same” (Sumitomo Chemical Company, Limited, priority 2003, dated 2011)",
  "key": {"[1]": {"test_system": "Western flower thrips (Frankliniella occidentalis)", "assay": "Test Example 2: Western flower thrips larvae on treated cucumber leaf", "assay_type": "in vivo", "settings": "500 ppm, 20 ml/cup on cucumber; thirty larvae set free on cut first true leaf; after seven days", "experimental": "A formulation of each test compound obtained according to Formulation Example 5 was diluted with water so that the active ingredient concentration came to 500 ppm to prepare a test spray liquid. The seeds of cucumber were planted in a polyethylene cup, and grown until their first foliage leaves developed, and then a test spray liquid was applied at a ratio of 20 ml/cup to the plant. After the liquid sprayed to the cucumber were dried, the first true leaf was cut off and placed on a filter paper (70 mm in diameter) impregnated with water in a polyethylene cup (110 mm in diameter). Thirty larvae of Western flower thrips (Frankliniella occidentalis) were set free on the first true leaf, which was covered with a polyethylene cup. After seven days, the number of surviving pests was examined."}, "[2]": {"test_system": "cotton aphids (Aphis gossypii)", "assay": "Test Example 1: spray test on cotton aphids on cucumber plants", "assay_type": "in vivo", "settings": "500 ppm active ingredient, sprayed 20 ml/cup on cucumber with about 20 cotton aphids; 6th day after the application", "experimental": "A formulation of a test compound obtained in Formulation Example 5 was diluted with water so that the active ingredient concentration came to 500 ppm to prepare a test spray liquid. The seeds of cucumber were planted in polyethylene cups and grown until their first foliage leaves developed, on which about 20 cotton aphids (Aphis gossypii) were made parasitic. After one day, the test spray liquid was sprayed at the rate of 20 ml/cup onto the cucumber plants. On the 6th day after the application, the number of cotton aphids was examined and the control value was determined by the following formula: Control value (%)={1−(Cb×Tai)/(Cai×Tb)}×100 wherein the variables in the formula have the following meanings: Cb: the number of insects before the treatment in the non-treated area; Cai: the number of insects at the time of observation in the non-treated area; Tb: the number of insects before the treatment in the treated area; and Tai: the number of insects at the time of observation in the treated area."}},
  "data": [
    {"smiles": "CC#CCOc1cc(N2C[C@@H](C)C[C@H](C)C2)ncn1", "note": "(relative stereo) [Compound (44), 4-(2-butynyloxy)-6-(trans-3,5-dimethylpiperidino)pyrimidine]", "values": [
      {"measurement": "number of surviving pests", "setting": "[1]", "value": 0}
    ]},
    {"smiles": "CC#CCOc1ncnc(N2CC(C)CC(C)C2)c1F", "note": "(stereo not shown) [(51), 4-(2-butynyloxy)-5-fluoro-6-(3,5-dimethylpiperidino)pyrimidine]", "values": [
      {"measurement": "number of surviving pests", "setting": "[1]", "value": 0}
    ]},
    {"smiles": "CC#CCOc1ncnc(N2CC(C)CC(C)C2)c1F", "note": "(stereo not shown) [Compound (4), 4-(2-butynyloxy)-5-fluoro-6-(3,5-dimethylpiperidino)pyrimidine]", "values": [
      {"measurement": "number of surviving pests", "setting": "[1]", "value": 0}
    ]},
    {"smiles": "CC#CCOc1cc(N2C[C@H](C)C[C@H](C)C2)ncn1", "note": "[Compound (23), 4-(2-butynyloxy)-6-(cis-3,5-dimethylpiperidino)pyrimidine]", "values": [
      {"measurement": "number of surviving pests", "setting": "[1]", "value": 0}
    ]},
    {"smiles": "CC#CCOc1cc(N2CCCC(C(F)(F)F)C2)ncn1", "note": "(stereo not shown) [Compound (24), 4-(2-butynyloxy)-6-(3-trifluoromethylpiperidino)pyrimidine]", "values": [
      {"measurement": "number of surviving pests", "setting": "[1]", "value": 0}
    ]},
    {"smiles": "CC#CCOc1ncnc(N2CCCC(C)C2)c1F", "note": "(stereo not shown) [Compound (26), 4-(2-butynyloxy)-5-fluoro-6-(3-methylpiperidino)pyrimidine]", "values": [
      {"measurement": "number of surviving pests", "setting": "[1]", "value": 0}
    ]},
    {"smiles": "CC#CCOc1ncnc(N2C[C@H](C)C[C@H](C)C2)c1F", "note": "[Compound (29), 4-(2-butynyloxy)-5-fluoro-6-(cis-3,5-dimethylpiperidino)pyrimidine]", "values": [
      {"measurement": "number of surviving pests", "setting": "[1]", "value": 0}
    ]},
    {"smiles": "CC#CCOc1ncnc(N2CCCC(C)(C)C2)c1F", "note": "[Compound (32), 4-(2-butynyloxy)-6-(3,3-dimethylpiperidino)-5-fluoropyrimidine]", "values": [
      {"measurement": "number of surviving pests", "setting": "[1]", "value": 0}
    ]},
    {"smiles": "CC#CCOc1ncnc(N2CCCCC2CC)c1F", "note": "(stereo not shown) [Compound (33), 4-(2-butynyloxy)-6-(2-ethylpiperidino)-5-fluoropyrimidine]", "values": [
      {"measurement": "number of surviving pests", "setting": "[1]", "value": 0}
    ]},
    {"smiles": "CC#CCOc1ncnc(N2CCCCCCC2)c1F", "note": "[Compound (46), 1-(6-(2-butynyloxy)-5-fluoropyrimidin-4-yl)octahydro-1H-azocine]", "values": [
      {"measurement": "number of surviving pests", "setting": "[1]", "value": 0}
    ]},
    {"smiles": "CC#CCOc1nc(F)nc(N2CC(C)CC(C)C2)c1Cl", "note": "(stereo not shown) [Compound (52), 5-chloro-4-(2-butynyloxy)-2-fluoro-6-(3,5-dimethylpiperidino)pyrimidine]", "values": [
      {"measurement": "number of surviving pests", "setting": "[1]", "value": 0}
    ]},
    {"smiles": "CC#CCOc1ncnc(N2CC=CCC2)c1F", "note": "[Compound (53), 1-(6-(2-butynyloxy)-5-fluoropyrimidin-4-yl)-1,2,3,6-tetrahydropyridine]", "values": [
      {"measurement": "number of surviving pests", "setting": "[1]", "value": 0}
    ]},
    {"smiles": "COc1cc(N2CCCCC2)ncn1", "note": "[compound of the formula (A)]", "values": [
      {"measurement": "control value", "setting": "[2]", "value": "≤ 29", "unit": "%"}
    ]}
  ]
}
